Measured values taken from US9856279B2 (AGIOS PHARMACEUTICALS, INC, priority 2011, dated 2018).
Where two headings read alike, the source gives them in different places.

Molecular target: IDH1 R132H (Homo sapiens, UniProt O75874, R132H)
Assay: Assay for IDH1 R132H inhibitors (NADPH/aKG, resazurin detection)
Assay type: biochemical
Method in brief: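 Read-out is resorufin fluorescence (Ex544/Em590) 5 min after adding a 30 μM resazurin detection mix. Before that, mutant enzyme (0.2 μg/ml in its mix) ran 50 min at room temperature with compound, 8 uM NADPH and 2 mM aKG (mix levels) in Tris pH 7.5 with NaCl, MgCl2, BSA.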

[1] = enzyme assay of Example 12, read-out: IDH1R132H IC50
[2] = Table 3, enzyme assay, 50 minutes at room temperature, read-out: IC50 (IDH1 R132H Inhibition)

Chain of IDH1 R132H (O75874 whole entry R132H): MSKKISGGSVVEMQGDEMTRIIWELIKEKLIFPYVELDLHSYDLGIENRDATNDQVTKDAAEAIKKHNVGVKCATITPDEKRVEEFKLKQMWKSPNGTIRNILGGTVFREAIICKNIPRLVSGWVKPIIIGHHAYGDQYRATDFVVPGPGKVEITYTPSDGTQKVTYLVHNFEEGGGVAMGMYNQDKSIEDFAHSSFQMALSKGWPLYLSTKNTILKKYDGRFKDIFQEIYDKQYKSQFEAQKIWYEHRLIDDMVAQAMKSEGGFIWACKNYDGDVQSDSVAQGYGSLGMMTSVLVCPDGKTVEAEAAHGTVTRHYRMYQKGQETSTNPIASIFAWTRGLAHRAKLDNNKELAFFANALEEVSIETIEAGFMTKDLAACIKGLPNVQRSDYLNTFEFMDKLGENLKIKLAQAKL

Row | SMILES | IC50 [1] | IC50 [2]
1 | COCCC(=O)N1CCN(c2nc(C3CC3)c(-c3ccc(N4CCOCC4)cc3)cc2C#N)C[C@H]1C [Compound 354, (R)-6-cyclopropyl-2-[4-(3-methoxy-propionyl)-3-methyl-piperazin-1-yl]-5-(4-morpholin-4-yl-phenyl)-nicotinonitrile] | 500 to 1000 nM | 
2 | CC(C)c1cc(-c2ccccc2)c(C#N)c(N2C[C@@H](C)N(C(=O)c3ccccc3)[C@@H](C)C2)n1 [Compound 101, 2-((3S,5R)-4-benzoyl-3,5-dimethylpiperazin-1-yl)-6-isopropyl-4-phenylnicotinonitrile] |  | 1000 to 5000 nM
3 | COCCC(=O)N1CCN(c2nc(C3CC3)c(-c3ccc(F)cc3)c(C)c2C#N)C[C@H]1C [Compound 241, (R)-6-cyclopropyl-5-(4-fluorophenyl)-2-(4-(3-methoxypropanoyl)-3-methylpiperazin-1-yl)-4-methylnicotinonitrile] |  | ≤ 1000 nM
4 | Cc1cccc(-c2cc(C#N)c(N3CCN(C(=O)c4ccco4)[C@H](C)C3)nc2C(C)C)c1 [Compound 190] |  | 5000 to 15000 nM
5 | CCCOc1ccc(-c2c(C3CC3)nc(N3CCN(C(=O)CCOC)[C@H](C)C3)c(C#N)c2C)cc1 [Compound 337, (R)-6-cyclopropyl-2-[4-(3-methoxy-propionyl)-3-methyl-piperazin-1-yl]-4-methyl-5-(4-propoxy-phenyl)-nicotinonitrile] | 500 to 1000 nM | 
6 | COCCC(=O)N1CCN(c2nc(C(C)C)c(-c3ccc(OC(F)(F)F)cc3)cc2C#N)C[C@H]1C [Compound 232, (R)-6-isopropyl-2-(4-(3-methoxypropanoyl)-3-methylpiperazin-1-yl)-5-(4-(trifluoromethoxy)phenyl)nicotinonitrile] |  | 1000 to 5000 nM
7 | COCCC(=O)N1CCN(c2nc(C(C)C)c(-c3ccc4c(c3)OCO4)cc2C#N)C[C@H]1C [Compound 224, (R)-5-(benzo[d][1,3]dioxol-5-yl)-6-isopropyl-2-(4-(3-methoxypropanoyl)-3-methylpiperazin-1-yl)nicotinonitrile] |  | ≤ 1000 nM
8 | Cc1ccccc1-c1cc(C(C)C)nc(N2CCN(C(=O)c3ccoc3)[C@H](C)C2)c1C#N [Compound 158] |  | 1000 to 5000 nM
9 | N#Cc1cc(-c2ccccc2)c(-c2ccccc2)nc1N1CCN(C(=O)Cc2ccccc2)CC1 [Compound 123, 5,6-diphenyl-2-(4-(2-phenylacetyl)piperazin-1-yl)nicotinonitrile] |  | 5000 to 15000 nM
10 | COc1ccccc1-c1cc(C(C)C)nc(N2CCN(C(=O)c3ccco3)CC2)c1C#N [Compound 104, 2-(4-(furan-2-carbonyl)piperazin-1-yl)-6-isopropyl-4-(2-methoxyphenyl)nicotinonitrile] |  | 5000 to 15000 nM
11 | Cc1occc1C(=O)N1CCN(c2nc(C(C)C)c(-c3ccc(F)cc3)cc2C#N)C[C@H]1C [Compound 199, (R)-5-(4-fluorophenyl)-6-isopropyl-2-(3-methyl-4-(2-methylfuran-3-carbonyl)piperazin-1-yl)nicotinonitrile] |  | 1000 to 5000 nM
12 | COc1ccccc1-c1cc(C(C)C)nc(N2CCN(C(=O)c3ccoc3)[C@H](C)C2)c1C#N [Compound 148, (R)-2-(4-(furan-3-carbonyl)-3-methylpiperazin-1-yl)-6-isopropyl-4-(2-methoxyphenyl)nicotinonitrile] |  | 1000 to 5000 nM
13 | Cc1ccc(-c2cc(C#N)c(N3CCN(C(=O)c4ccoc4C)[C@H](C)C3)nc2C(C)C)cc1 [Compound 182, (R)-6-isopropyl-2-(3-methyl-4-(2-methylfuran-3-carbonyl)piperazin-1-yl)-5-p-tolylnicotinonitrile] |  | ≤ 1000 nM
14 | COc1ccccc1-c1cc(C#N)c(N2CCN(C(=O)c3ccoc3)[C@H](C)C2)nc1C(C)C [Compound 175, (R)-2-(4-(furan-3-carbonyl)-3-methylpiperazin-1-yl)-6-isopropyl-5-(2-methoxyphenyl)nicotinonitrile] |  | 1000 to 5000 nM
15 | CC(=O)Oc1ccccc1-c1cc(C(C)C)nc(N2CCN(C(=O)c3ccoc3)[C@H](C)C2)c1C#N [Compound 162, (R)-2-(3-cyano-2-(4-(furan-3-carbonyl)-3-methylpiperazin-1-yl)-6-isopropylpyridin-4-yl)phenylacetate] |  | 1000 to 5000 nM
16 | COCCC(=O)N1CCN(c2nc(C3CC3)c(-c3cccc(CO)c3)cc2C#N)C[C@H]1C [Compound 306, (R)-6-cyclopropyl-5-(3-(hydroxymethyl)phenyl)-2-(4-(3-methoxypropanoyl)-3-methylpiperazin-1-yl)nicotinonitrile] | 500 to 1000 nM | 
17 | Cc1occc1C(=O)N1CCN(c2nc(C(C)C)c(-c3ccc(C(F)(F)F)cc3)cc2C#N)C[C@H]1C [Compound 201, (R)-6-isopropyl-2-(3-methyl-4-(2-methylfuran-3-carbonyl)piperazin-1-yl)-5-(4-(trifluoromethyl)phenyl)-nicotinonitrile] |  | 1000 to 5000 nM
18 | COCCC(=O)N1CCN(c2nc(C(C)C)c(-c3ccc(OC)cc3)cc2C#N)C[C@H]1C [Compound 214, (R)-6-isopropyl-5-(4-methoxyphenyl)-2-(4-(3-methoxypropanoyl)-3-methylpiperazin-1-yl)nicotinonitrile] |  | 1000 to 5000 nM
19 | COCCC(=O)N1CCN(c2nc(C(C)C)c(-c3ccc(C)c(C)c3)cc2C#N)C[C@H]1C [Compound 220, (R)-5-(3,4-dimethylphenyl)-6-isopropyl-2-(4-(3-methoxypropanoyl)-3-methylpiperazin-1-yl)nicotinonitrile] |  | 1000 to 5000 nM
20 | COCCC(=O)N1CCN(c2nc(C(C)C)c(-c3ccc(C(C)C)cc3)cc2C#N)C[C@H]1C [Compound 208, (R)-6-isopropyl-5-(4-isopropylphenyl)-2-(4-(3-methoxypropanoyl)-3-methylpiperazin-1-yl)nicotinonitrile] |  | 1000 to 5000 nM
21 | COCCC(=O)N1CCN(c2nc(C3CC3)c(-c3cccc(OC)c3)c(C)c2C#N)C[C@H]1C [Compound 251, (R)-6-cyclopropyl-5-(3-methoxyphenyl)-2-(4-(3-methoxypropanoyl)-3-methylpiperazin-1-yl)-4-methylnicotinonitrile] |  | ≤ 1000 nM
22 | Cc1cccc(-c2cc(C#N)c(N3CCN(C(=O)c4ccoc4C)[C@H](C)C3)nc2C(C)C)c1 [Compound 200, (R)-6-isopropyl-2-(3-methyl-4-(2-methylfuran-3-carbonyl)piperazin-1-yl)-5-m-tolylnicotinonitrile] |  | 1000 to 5000 nM

Other lines, results leading:

Row | IC50 [1] | IC50 [2] | SMILES
23 | < 500 nM |  | N#Cc1cc(-c2cnc3cnccn23)c(C2CC2)nc1N1CCN(C(=O)C2CC2)[C@H](C2CC2)C1 [Compound 503, (R)-2-(4-(cyclopropanecarbonyl)-3-cyclopropylpiperazin-1-yl)-6-cyclopropyl-5-(imidazo[1,2-a]pyrazin-3-yl)nicotinonitrile]
24 | < 500 nM |  | N#Cc1cc(-c2ccnc(N)n2)c(C2CC2)nc1N1CCN(C(=O)CC(F)(F)F)[C@H](C2CC2)C1 [Compound 534]
25 | 1000 to 10000 nM |  | COCCC(=O)N1CCN(c2nc(C3CC3)c(-c3cccc4c(O)ncnc34)cc2C#N)C[C@H]1C [Compound 430]
26 | < 500 nM |  | N#Cc1cncc(-c2cc(C#N)c(N3CCN(C(=O)C4CC4)[C@H](C4CC4)C3)nc2C2CC2)c1 [Compound 494, (R)-6-(4-(cyclopropanecarbonyl)-3-cyclopropylpiperazin-1-yl)-2-cyclopropyl-[3,3′-bipyridine]-5,5′-dicarbonitrile]
27 | 500 to 1000 nM |  | N#CCn1cc(-c2cc(C#N)c(N3CCN(C(=O)C4CC4)[C@H](C4CC4)C3)nc2C2CC2)cn1 [Compound 486, (R)-5-(1-(cyanomethyl)-1H-pyrazol-4-yl)-2-(4-(cyclopropanecarbonyl)-3-cyclopropylpiperazin-1-yl)-6-cyclopropylnicotinonitrile]
28 | < 500 nM |  | COC(=O)CCC(=O)N1CCN(c2nc(C3CC3)c(-c3ccnc(Cl)c3)cc2C#N)C[C@H]1C1CC1 [Compound 739, (R)-methyl 4-(4-(2′-chloro-5-cyano-2-cyclopropyl-3,4′-bipyridin-6-yl)-2-cyclopropylpiperazin-1-yl)-4-oxobutanoate]
29 | 500 to 1000 nM |  | Cc1cc(-c2cc(C#N)c(N3CCN(C(=O)C4CC4)[C@H](C4CC4)C3)nc2C2CC2)ccn1 [Compound 523, (R)-6-(4-(cyclopropanecarbonyl)-3-cyclopropylpiperazin-1-yl)-2-cyclopropyl-2′-methyl-3,4′-bipyridine-5-carbonitrile]
30 | < 500 nM |  | C=Cc1cnnc(-c2c(C3CC3)nc(N3CCN(C(=O)C[C@@H]4CCO4)[C@H](C4CC4)C3)c(C#N)c2C)c1 [Compound 780, 6-cyclopropyl-2-((R)-3-cyclopropyl-4-(2-((S)-oxetan-2-yl)acetyl)piperazin-1-yl)-4-methyl-5-(5-vinylpyridazin-3-yl)nicotinonitrile]
31 | < 500 nM |  | COCCC(=O)N1CCN(c2nc(C3CC3)c(Nc3ccnc(C(=O)OC)c3)cc2C#N)C[C@H]1C [Compound 683, (R)-methyl 4-((5-cyano-2-cyclopropyl-6-(4-(3-methoxypropanoyl)-3-methylpiperazin-1-yl)pyridin-3-yl)amino)picolinate]
32 | < 500 nM |  | C=Cc1cnc2c(-c3cc(C#N)c(N4CCN(C(=O)/C=C/CCO)[C@H](C(C)C)C4)nc3C3CC3)cccc2n1 [Compound 790, (R)-6-cyclopropyl-2-(4-(5-hydroxypent-2-enoyl)-3-isopropylpiperazin-1-yl)-5-(2-vinylquinoxalin-5-yl)nicotinonitrile]
33 | 500 to 1000 nM |  | N#Cc1cc(-c2cnn(CC(N)=O)c2)c(C2CC2)nc1N1CCN(C(=O)C2CC2)[C@H](C2CC2)C1 [Compound 501, (R)-2-(4-(5-cyano-6-(4-(cyclopropanecarbonyl)-3-cyclopropylpiperazin-1-yl)-2-cyclopropylpyridin-3-yl)-1H-pyrazol-1-yl)acetamide]
34 | < 500 nM |  | C[C@@H]1CN(c2nc(C3CC3)c(-c3cccc4cnccc34)cc2C#N)CCN1C(=O)CCO [Compound 402, (R)-6-cyclopropyl-2-(4-(3-hydroxypropanoyl)-3-methylpiperazin-1-yl)-5-(isoquinolin-5-yl)nicotinonitrile]
